Measured values from patent US4348393A, “N-Aryl oxazolidinones, oxazolidinethiones, pyrrolidinones, pyrrolidines and thiazolidinones” (Delalande S.A., priority 1978, dated 1982).
Read-outs that look alike come from different tables or passages of the source.

Experiments:
[1] = tested on: generalized trembling caused by dl-5-hydroxytryptophane; test: Test A: potentiation in mice of generalized trembling caused by dl-5-hydroxytryptophane; format: in vivo; conditions: Mus musculus, po, read-out: Test A ED 50
Procedure: Test A: Potentiation in mice of generalized trembling caused by an interperitoneal injection (200 mg/kg) of dl-5-hydroxytryptophane, following the protocol described by C. GOURET and G. RAYNAUD in J. Pharmacol. (Paris), (1974), 5, 231.

[2] = tested on: ptosis observed one hour after reserpine; test: Test B: antagonism of reserpine-induced ptosis in mice; format: in vivo; conditions: Mus musculus, 1 h, po, antagonism of ptosis one hour after reserpine 2 mg/kg intravenous, read-out: Test B ED 50
Procedure: Test B: Antagonism with respect to the ptosis observed one hour after an intravenous injection (2 mg/kg) of reserpine given to mice, following the protocol described by C.

Toxicity LD50 mouse = conditions: in vivo, po, read-out: Toxicity LD 50
[3] = mice, potentiation of trembling by dl-5-hydroxytryptophane 200 mg/kg interperitoneal

Row | SMILES | ED50 [1, 3] | ED50 [2] | LD50 (Toxicity LD50 mouse) | ED50 [1]
1 | CC(=O)OCC1CN(c2ccc(OCCC#N)cc2)C(=O)O1 (stereo not shown) [compound 3] | 3.1 mg/kg | 2.7 mg/kg | > 2000 mg/kg | 
2 | CC(=O)OCC1CN(c2ccc(OCC3CCCC3)cc2)C(=O)O1 (stereo not shown) [compound 13] | 3 mg/kg | 2 mg/kg | > 2000 mg/kg | 
3 | CCC(=O)OCC1CN(c2ccc(OCc3ccccc3)cc2)C(=O)O1 (stereo not shown) [compound 24] | 9 mg/kg | 12.5 mg/kg | > 2000 mg/kg | 
4 | COCC1CN(c2ccc(OCC3CCCC3)cc2)C(=O)O1 (stereo not shown) [compound 49] | 0.5 mg/kg | 0.4 mg/kg | 2000 mg/kg | 
5 | COCC1CN(c2ccc(OCCC#N)cc2)C(=O)O1 (stereo not shown) [compound 52] | 1.2 mg/kg |  | > 2000 mg/kg | 
6 | COCC1CN(c2ccc(OCc3cccc([N+](=O)[O-])c3)cc2)C(=O)O1 (stereo not shown) [compound 61, para (meta-nitrobenzyloxy) phenyl-3 methoxymethyl-5 oxazolidinone-2] | 0.08 mg/kg | 0.1 mg/kg | 1500 mg/kg | 
7 | CNCC1CN(c2ccc(OCC3CCCC3)cc2)C(=O)O1 (stereo not shown) [compound 77] | 2.5 mg/kg | 6.2 mg/kg | > 2000 mg/kg | 
8 | CNCC1CN(c2ccc(OCc3cccc([N+](=O)[O-])c3)cc2)C(=O)O1 (stereo not shown) [compound 85] | 3 mg/kg | 2 mg/kg | 1000 mg/kg | 
9 | CC(C)CCOc1ccc(N2CC(CO)OC2=S)cc1 (stereo not shown) [compound 91] |  | 5.5 mg/kg | > 2000 mg/kg | 4.5 mg/kg
10 | O=[N+]([O-])c1cccc(COc2ccc(N3CC(CO)OC3=S)cc2)c1 (stereo not shown) [compound 94] | 1.5 mg/kg | 1 mg/kg | > 2000 mg/kg | 
11 | O=C1CC(CO)CN1c1ccc(OCc2cccc([N+](=O)[O-])c2)cc1 (stereo not shown) [compound 99] | 50 mg/kg | 30 mg/kg | > 2000 mg/kg | 
12 | COCC1CN(c2ccc(OCC3CCCCC3)cc2)C(=S)O1 (stereo not shown) [compound 114] | 3.7 mg/kg | 2 mg/kg | > 2000 mg/kg | 
13 | COCC1CN(c2ccc(OCc3cccc([N+](=O)[O-])c3)cc2)C(=S)O1 (stereo not shown) [compound 118] | 1 mg/kg | 0.1 mg/kg | > 2000 mg/kg | 
14 | CC(=O)OCC1CN(c2ccc(OCCC(C)C)cc2)C(=O)O1 (stereo not shown) [compound 123] | 2 mg/kg | 1.4 mg/kg | > 2000 mg/kg | 
15 | CCC(=O)OCC1CN(c2ccc(OCc3cccc(C#N)c3)cc2)C(=O)O1 (stereo not shown) [compound 132] | 3 mg/kg | 2 mg/kg | > 2000 mg/kg | 
16 | CCCOCC1CN(c2ccc(OCC3CCCC3)cc2)C(=O)O1 (stereo not shown) [compound 143] | 12.5 mg/kg | 12 mg/kg |  | 
17 | COCC1CN(c2ccc(OCC3CCOCC3)cc2)C(=O)O1 (stereo not shown) [compound 144] | 2.2 mg/kg | 1.1 mg/kg |  | 
18 | CCCOCC1CN(c2ccc(OCCC#N)cc2)C(=O)O1 (stereo not shown) [compound 145] | 8.5 mg/kg | 12 mg/kg |  | 
19 | CCOCC1CN(c2ccc(OCC3CCCC3)cc2)C(=O)O1 (stereo not shown) [compound 146] | 5 mg/kg | 12.5 mg/kg |  | 
20 | CCOCC1CN(c2ccc(OCCC#N)cc2)C(=O)O1 (stereo not shown) [compound 147] | 1.5 mg/kg | 2.6 mg/kg |  | 
21 | COCC1CN(c2ccc(OCC3CCCCCC3)cc2)C(=O)O1 (stereo not shown) [compound 150] | 0.7 mg/kg | 0.5 mg/kg |  | 
22 | COCC1CN(c2ccc(OCC(C)=O)cc2)C(=O)O1 (stereo not shown) [compound 151] | 5.2 mg/kg | 5 mg/kg |  | 

Row | SMILES | ED50 [1, 3] | ED50 [2] | LD50 (Toxicity LD50 mouse) | ED50 [1]
23 | CCCOCC1CN(c2ccc(OCc3ccccc3)cc2)C(=O)O1 (stereo not shown) [compound 152] | 18 mg/kg | 15.5 mg/kg |  | 
24 | CCCOCC1CN(c2ccc(OCc3cccc(Cl)c3)cc2)C(=O)O1 (stereo not shown) [compound 153] | 3.8 mg/kg | 4 mg/kg |  | 
25 | CCOCC1CN(c2ccc(OCc3ccccc3)cc2)C(=O)O1 (stereo not shown) [compound 154] | 19 mg/kg | 17.5 mg/kg |  | 
26 | CCOCC1CN(c2ccc(OCc3cccc(Cl)c3)cc2)C(=O)O1 (stereo not shown) [compound 155] | 9.6 mg/kg | 3 mg/kg |  | 
27 | COCC1CN(c2ccc(OCc3cc(Cl)cc([N+](=O)[O-])c3)cc2)C(=O)O1 (stereo not shown) [compound 156] | 0.47 mg/kg | 0.3 mg/kg |  | 
28 | CC(C)COCC1CN(c2ccc(OCc3cccc([N+](=O)[O-])c3)cc2)C(=O)O1 (stereo not shown) [compound 157] | 4.7 mg/kg | 6.2 mg/kg |  | 
29 | CC(C)CCOCC1CN(c2ccc(OCc3cccc([N+](=O)[O-])c3)cc2)C(=O)O1 (stereo not shown) [compound 158] | 6 mg/kg | 6 mg/kg |  | 
30 | COCC1CN(c2ccc(OCc3ccc(C#N)cc3)cc2)C(=O)O1 (stereo not shown) [compound 159] | 5.2 mg/kg | 4.8 mg/kg |  | 
31 | COCC1CN(c2ccc(OCc3cc(C#N)cc([N+](=O)[O-])c3)cc2)C(=O)O1 (stereo not shown) [compound 161] | 1.1 mg/kg | 0.36 mg/kg | > 2000 mg/kg | 
32 | COCC1CN(c2ccc(OCc3ccc(F)c(C#N)c3)cc2)C(=O)O1 (stereo not shown) [compound 162] | 0.54 mg/kg | 1.55 mg/kg |  | 
33 | COCC1CN(c2ccc(OCc3ccc(F)c(Cl)c3)cc2)C(=O)O1 (stereo not shown) [compound 163] | 1.15 mg/kg | 8 mg/kg |  | 
34 | COCC1CN(c2ccc(OCc3ccc(Cl)c(Cl)c3)cc2)C(=O)O1 (stereo not shown) [compound 164] | 3.4 mg/kg | 3.4 mg/kg |  | 
35 | COCC1CN(c2ccc(OCc3ccc([N+](=O)[O-])cc3)cc2)C(=O)O1 (stereo not shown) [compound 165] | 6.8 mg/kg | 4.7 mg/kg |  | 
36 | COCC1CN(c2ccc(OCc3cc(Cl)cc(Cl)c3)cc2)C(=O)O1 (stereo not shown) [compound 166] | 3.8 mg/kg | 3.4 mg/kg |  | 
37 | CCOCC1CN(c2ccc(OCc3cccc(C#N)c3)cc2)C(=O)O1 (stereo not shown) [compound 167] | 3.7 mg/kg | 3 mg/kg |  | 
38 | COCC1CN(c2ccc(OCc3ccc([N+](=O)[O-])c(Cl)c3)cc2)C(=O)O1 (stereo not shown) [compound 168] | 25 mg/kg | 16 mg/kg | > 1000 mg/kg | 
39 | COCC1CN(c2ccc(OCc3ccc(F)c([N+](=O)[O-])c3)cc2)C(=O)O1 (stereo not shown) [compound 169] | 3 mg/kg | 4.1 mg/kg | > 1000 mg/kg | 
40 | CCCCOc1ccc(N2CC(CN)OC2=O)cc1 (stereo not shown) [compound 170] | 12.5 mg/kg | 16 mg/kg |  | 
41 | CN(C)CC1CN(c2ccc(OCCC#N)cc2)C(=O)O1 (stereo not shown) [compound 171] | 19.5 mg/kg | 25 mg/kg |  | 
42 | CC(C)CCOc1ccc(N2CC(CN)OC2=O)cc1 (stereo not shown) [compound 174] | 3 mg/kg | 3.5 mg/kg |  | 
43 | CNCC1CN(c2ccc(OCc3ccc(F)cc3)cc2)C(=O)O1 (stereo not shown) [compound 175] | 5.8 mg/kg | 9.6 mg/kg |  | 
44 | NCC1CN(c2ccc(OCc3ccc(F)cc3)cc2)C(=O)O1 (stereo not shown) [compound 176] | 4 mg/kg | 4 mg/kg |  | 

Row | SMILES | ED50 [1, 3] | ED50 [2] | LD50 (Toxicity LD50 mouse) | ED50 [1]
45 | OCC1CN(c2ccc(OCc3cccc(F)c3)cc2)C(=S)O1 (stereo not shown) [compound 177] | 8 mg/kg | 15.5 mg/kg |  | 
46 | O=C(COc1ccccc1)OCC1CN(c2ccc(OCc3cccc([N+](=O)[O-])c3)cc2)C(=O)O1 (stereo not shown) [compound 178] | 33 mg/kg | 28 mg/kg | > 1000 mg/kg | 
47 | CC=CCOc1ccc(N2CC(COC)OC2=O)cc1 (stereo not shown) [compound 179] |  | 7 mg/kg | > 1000 mg/kg | 4.5 mg/kg
48 | COCC1CN(c2ccc(N(C)C)cc2)C(=O)O1 (stereo not shown) [compound 180] | 7.4 mg/kg | 7.8 mg/kg | 1000 mg/kg | 
49 | COCC1CN(c2ccc(OCCN3CCOCC3)cc2)C(=O)O1 (stereo not shown) [compound 181] | 4 mg/kg | 9 mg/kg | > 1000 mg/kg | 
50 | COCC1CN(c2ccc(OCC3CCCOC3)cc2)C(=O)O1 (stereo not shown) [compound 182] | 3.7 mg/kg | 5.8 mg/kg | > 1000 mg/kg | 
51 | COCC1CN(c2ccc(OCC3CCC3)cc2)C(=O)O1 (stereo not shown) [compound 183] | 1.9 mg/kg | 2.4 mg/kg | > 1000 mg/kg | 
52 | COCC1CN(c2ccc(OCC3=CCCC3)cc2)C(=O)O1 (stereo not shown) [compound 184] | 1.2 mg/kg | 0.72 mg/kg | > 1000 mg/kg | 
53 | COCC1CN(c2ccc(OCC=C(C)C)cc2)C(=O)O1 (stereo not shown) [compound 185] | 12 mg/kg | 7 mg/kg | > 1000 mg/kg | 
54 | COCC1CN(c2ccc(OCC3(C)CCCC3)cc2)C(=O)O1 (stereo not shown) [compound 186] | 3 mg/kg | 3 mg/kg | > 1000 mg/kg | 
55 | COCC1CN(c2ccc(/C=C/c3ccccc3)cc2)C(=O)O1 (stereo not shown) [compound 187] | 2.7 mg/kg | 1.3 mg/kg | > 1000 mg/kg | 
56 | COCC1CN(c2ccc(OCC3CCC(=O)CC3)cc2)C(=O)O1 (stereo not shown) [compound 188] | 0.3 mg/kg | 0.4 mg/kg |  | 
57 | COCC1CN(c2ccc(C#Cc3ccccc3)cc2)C(=O)O1 (stereo not shown) [compound 189] | 2.6 mg/kg | 0.9 mg/kg | > 1000 mg/kg | 
58 | COCC1CN(c2ccc(/C=C/c3cccc(Cl)c3)cc2)C(=O)O1 (stereo not shown) [compound 190] | 1 mg/kg | 0.23 mg/kg | > 1000 mg/kg | 
59 | COCC1CN(c2ccc(/C=C/c3cccc([N+](=O)[O-])c3)cc2)C(=O)O1 (stereo not shown) [compound 191] | 0.4 mg/kg | 0.38 mg/kg | 1000 mg/kg | 
60 | COCC1CN(c2ccc(/C=C\c3ccccc3)cc2)C(=O)O1 (stereo not shown) [compound 193] | 19 mg/kg | 30 mg/kg |  | 
61 | COCC1CN(c2ccc(/C=C\c3cccc([N+](=O)[O-])c3)cc2)C(=O)O1 (stereo not shown) [compound 194] | 6.4 mg/kg | 5.8 mg/kg |  | 
62 | COCC1CN(c2ccc(/C=C/c3cccc(C#N)c3)cc2)C(=O)O1 (stereo not shown) [compound 196] |  | 0.55 mg/kg | > 1000 mg/kg | 
63 | COC[C@H]1CN(c2ccc(OCc3cccc(C#N)c3)cc2)C(=O)O1 [compound 199] | 0.31 mg/kg |  | > 1000 mg/kg | 
64 | COC[C@@H]1CN(c2ccc(OCc3cccc(C#N)c3)cc2)C(=O)O1 [compound 200] | 1.7 mg/kg |  | > 1000 mg/kg | 
65 | COCC1CN(c2ccc(OCCCCC#N)cc2)C(=S)O1 (stereo not shown) [compound 217] | 1 mg/kg | 1 mg/kg |  | 
